Results: patent publication US20120014950A1, “Antibodies That Specifically Bind to DR3” (Xencor, Inc., priority 2010, published 2012)

Tests used:
[1] = system: collagen induced arthritis (CIA) mice; assay: Murine collagen induced arthritis (CIA) model; type: in vivo, DBA/1JLacJ mice; conditions: i.p., 200 μg (dexamethasone 50 μg)
Experimental: In general CIA was induced using the following protocol. Male DBA/1JLacJ mice (8-10 weeks) were injected intradermally (i.d.) at the base of the tail with […] of type II bovine collagen (CII) and complete Freund's adjuvant (CFA) at a final concentration of 4 mg/ml on Day 1. Mice were given a second injection i.d. with CII and CFA on Day 21. On days 21, 28, 35, and 42, mice were treated prophylactically with 200 μg intraperitoneal (i.p.) of the therapeutic molecules, anti-TNF-α antibody (R&D systems, cat #AB-410-NA) or D06-Fab-MSA. In addition, a control group of mice was not treated with a therapeutic molecule (“No Treatment”) and a second control group was treated with 50 μg dexamethasone i.p. every other day (e.o.d.) (“Dexamethasone”). The animals were scored every other day until the experiment was terminated on Day 46.
In a separate experiment, on days 21, 28, 35, and 42, CIA-mice were treated prophylactically with 200 μg intraperitoneal (i.p.) of either 2D9-Fab-MSA, or 5D10-Fab-MSA. In addition, a control group of mice was treated with an isotype control antibody (IgG1). The animals were scored every other day until the experiment was terminated on Day 46. Clinical scores were determined as above.
Histology was preformed to further determine the degree of inflammation as well as potential bone erosion in these animals. […]

DR3 receptor = molecular target: T1, DR3 receptor (Homo sapiens, UniProt Q93038); assay: TF-1 assay (cell viability, cycloheximide, Cell Titer Glo); type: cell-based; conditions: TF-1 cells with cycloheximide; luminescence
T1 construct: endogenous in cells; host or cells: TF-1 (premyeloid)
T1 sequence (Q93038 25-417): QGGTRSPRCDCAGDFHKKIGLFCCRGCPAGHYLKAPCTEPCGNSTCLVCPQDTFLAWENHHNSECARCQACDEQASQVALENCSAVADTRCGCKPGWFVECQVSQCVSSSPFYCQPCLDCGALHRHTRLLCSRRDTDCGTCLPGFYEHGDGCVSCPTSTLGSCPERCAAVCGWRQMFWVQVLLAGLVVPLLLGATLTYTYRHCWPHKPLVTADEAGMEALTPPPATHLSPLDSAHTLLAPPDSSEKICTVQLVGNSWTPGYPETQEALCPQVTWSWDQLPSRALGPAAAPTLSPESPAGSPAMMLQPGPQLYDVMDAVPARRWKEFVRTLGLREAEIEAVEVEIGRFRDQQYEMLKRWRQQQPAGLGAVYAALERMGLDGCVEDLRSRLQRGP

Compound | % Arthritis Incidence at Day 42 [1] [%] | TF-1 cell viability / apoptosis induction (agonist, TL1A-like activity) (DR3 receptor)
C[C@@H]1C[C@H]2[C@@H]3CCC4=CC(=O)C=C[C@]4(C)[C@@]3(F)[C@@H](O)C[C@]2(C)[C@@]1(O)C(=O)CO [Dexamethasone] | 0 | 
TL1A: human TL1A (TNFSF15), the natural ligand for DR3; positive control [reference compound] |  | induce apoptosis
